Entries after “also recorded” stand apart in the source; their conditions may differ.
Key:
[1] = system: κ agonist U50,488-induced diuresis; experiment: Antagonism of U50,488-induced diuresis in rats; format: in vivo, male Sprague-Dawley rats; settings: for antagonism of U50,488-induced diuresis (urine output), week 0: s.c., first 5 h after dosing, U50,488 10 mg/kg; for antagonism of U50,488-induced diuresis (urine output), week 1: single s.c. dose at week 0, no further dosing
[2] = system: κ agonist U50,488-induced diuresis; settings: antagonism of U50,488-induced diuresis; cited from earlier work

Row | Structure (SMILES) | antagonism of U50,488-induced diuresis (urine output), week 0 [1] | antagonism of U50,488-induced diuresis (urine output), week 1 [1] | antagonism of the diuretic effects of U50,488 at individual doses ([1]; 10 and 30 mg/kg s.c., week 0, Dunnett's test vs U50,488) | duration of activity as antagonist of U50,488-induced diuresis ([1]; single s.c. dose) | duration of κ antagonist activity [2]
1 | CC(C)[C@@H](CN1CC[C@@](C)(c2cccc(O)c2)[C@@H](C)C1)NC(=O)[C@H]1Cc2ccc(O)cc2CN1 [Compound 3, (3R)-7-Hydroxy-N-[(1S)-1-{[(3R,4R)-4-(3-hydroxyphenyl)-3,4-dimethyl-1-piperidinyl]methyl}-2-methylpropyl)-1,2,3,4-tetrahydro-3-isoquinolinecarboxamide, reference compound] | dose-related antagonism | continued to show dose-related antagonism | – | – | –
2 | CC(C)[C@@H](CN1CC[C@@](C)(c2cccc(O)c2)[C@@H](C)C1)NC(=O)[C@@H]1CCc2cc(O)ccc2C1 [Compound 7a, 6-Hydroxy-1,2,3,4-tetrahydro-naphthalene-2(+)-carboxylic acid-{1-[4-(3-hydroxyphenyl)-(3R,4R)-trans-dimethyl-piperidinylmethyl]-(2S)-methylpropyl}amide] | antagonized selective κ agonist U50,488-induced diuresis; also recorded: dose-related antagonism | did not show any κ antagonist activity after one week; also recorded: antagonism of U50,488 could no longer be detected | significant antagonism | less than 1 week | –
3 | Oc1ccc2c3c1O[C@H]1c4[nH]c5c(c4C[C@@]4(O)[C@@H](C2)N(CC2CC2)CC[C@]314)C[C@@]1(O)[C@H]2Cc3ccc(O)c4c3[C@@]1(CCN2CC1CC1)[C@H]5O4 [Compound 1, norBNI] | – | – | – | – | up to 3 weeks
